Data taken from patent US6395526B1, “DNA polymerase” (Takara Shuzo Co., Ltd., priority 1995, dated 2002).

Key:
[1] = biological target: T1, Pfu DNA polymerase (Pyrococcus furiosus, UniProt P61875); assay: Inhibition by aphidicolin of Pfu DNA polymerase; format: biochemical, Pyrococcus furiousus; settings: 1.0 mM aphidicolin
T1 construct: purchased Stratagene
T1 sequence (P61875 1-775): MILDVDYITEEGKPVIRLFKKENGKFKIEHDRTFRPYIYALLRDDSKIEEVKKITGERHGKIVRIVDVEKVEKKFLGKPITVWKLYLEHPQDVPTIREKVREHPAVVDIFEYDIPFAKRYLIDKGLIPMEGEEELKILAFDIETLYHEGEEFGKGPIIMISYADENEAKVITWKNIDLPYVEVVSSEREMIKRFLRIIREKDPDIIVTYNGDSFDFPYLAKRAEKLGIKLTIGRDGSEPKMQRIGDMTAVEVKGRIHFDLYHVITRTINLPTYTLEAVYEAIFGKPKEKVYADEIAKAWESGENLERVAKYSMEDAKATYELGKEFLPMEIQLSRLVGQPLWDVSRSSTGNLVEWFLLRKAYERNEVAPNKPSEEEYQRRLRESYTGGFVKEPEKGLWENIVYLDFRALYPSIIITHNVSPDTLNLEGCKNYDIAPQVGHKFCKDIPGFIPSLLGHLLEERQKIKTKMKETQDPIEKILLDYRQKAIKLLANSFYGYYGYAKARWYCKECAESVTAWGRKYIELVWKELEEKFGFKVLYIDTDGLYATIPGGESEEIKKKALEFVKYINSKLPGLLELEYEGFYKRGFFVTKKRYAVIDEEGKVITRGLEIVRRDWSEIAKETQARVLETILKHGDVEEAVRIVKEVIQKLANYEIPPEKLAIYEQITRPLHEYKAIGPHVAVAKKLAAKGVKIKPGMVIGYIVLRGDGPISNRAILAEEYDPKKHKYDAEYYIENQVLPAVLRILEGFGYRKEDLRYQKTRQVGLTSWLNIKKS
Method: (§1) In order to compare the modes of inhibition by inhibitors, the modes of inhibition of the DNA polymerase of the present invention and an α-type DNA polymerase derived from Pyrococcus furiousus (Pfu DNA polymerase, manufactured by Stratagene), a known DNA polymerase, were compared using a specific inhibitor of α-type DNA polymerases, aphidicolin. The activity changes were examined, while the aphidicolin concentration was increased from 0 to 2.0 mM in the presence of 20 mM Tris-HCl, pH 7.7, 15 mM MgCl2, 2 mM 2-mercaptoethanol, 0.2 mg/ml activated DNA, and 40 μM each of dATP, dGTP, dCTP and dTTP.

[2] = biological target: T2, DNA polymerase of the present invention (Pyrococcus furiosus, UniProt P81409); assay: Inhibition by aphidicolin of the DNA polymerase of the present invention; format: biochemical; settings: 2.0 mM aphidicolin
T2 construct: made in house; host or cells: Escherichia coli JM109 carrying pFU1001 (genomic XbaI-XbaI fragment in pTV118N)
T2 sequence (P81409 1-1263): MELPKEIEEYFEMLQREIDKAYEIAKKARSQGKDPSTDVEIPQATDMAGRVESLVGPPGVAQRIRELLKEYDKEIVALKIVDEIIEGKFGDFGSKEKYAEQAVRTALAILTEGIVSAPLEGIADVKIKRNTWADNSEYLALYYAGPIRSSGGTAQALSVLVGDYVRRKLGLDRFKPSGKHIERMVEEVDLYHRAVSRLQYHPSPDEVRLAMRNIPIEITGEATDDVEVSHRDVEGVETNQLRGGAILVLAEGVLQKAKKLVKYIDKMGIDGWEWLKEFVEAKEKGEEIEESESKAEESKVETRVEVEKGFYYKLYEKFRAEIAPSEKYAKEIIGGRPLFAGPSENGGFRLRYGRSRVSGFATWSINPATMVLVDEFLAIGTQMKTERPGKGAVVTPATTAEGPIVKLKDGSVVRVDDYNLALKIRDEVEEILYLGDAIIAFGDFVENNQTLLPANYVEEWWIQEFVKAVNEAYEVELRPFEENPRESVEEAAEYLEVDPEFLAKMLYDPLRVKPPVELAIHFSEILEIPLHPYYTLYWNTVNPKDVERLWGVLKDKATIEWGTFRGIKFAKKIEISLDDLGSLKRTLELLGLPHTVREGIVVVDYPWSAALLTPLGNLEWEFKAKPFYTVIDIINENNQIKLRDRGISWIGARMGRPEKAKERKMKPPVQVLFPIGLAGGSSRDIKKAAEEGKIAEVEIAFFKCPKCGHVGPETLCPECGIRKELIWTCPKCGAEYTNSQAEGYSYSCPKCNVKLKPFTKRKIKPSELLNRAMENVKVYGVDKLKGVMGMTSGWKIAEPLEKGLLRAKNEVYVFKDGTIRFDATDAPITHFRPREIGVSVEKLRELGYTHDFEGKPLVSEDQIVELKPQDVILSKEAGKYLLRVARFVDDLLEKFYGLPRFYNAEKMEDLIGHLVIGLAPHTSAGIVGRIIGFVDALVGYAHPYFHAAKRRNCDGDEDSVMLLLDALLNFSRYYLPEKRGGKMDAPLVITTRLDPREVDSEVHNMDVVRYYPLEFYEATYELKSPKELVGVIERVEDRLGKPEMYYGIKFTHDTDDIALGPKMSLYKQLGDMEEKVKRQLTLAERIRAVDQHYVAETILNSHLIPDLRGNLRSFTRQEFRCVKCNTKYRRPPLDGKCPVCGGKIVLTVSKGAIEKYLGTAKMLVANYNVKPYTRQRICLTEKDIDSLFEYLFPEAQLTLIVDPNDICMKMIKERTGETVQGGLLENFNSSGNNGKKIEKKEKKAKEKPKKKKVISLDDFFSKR
T2 sequence (P81412 1-613 partner): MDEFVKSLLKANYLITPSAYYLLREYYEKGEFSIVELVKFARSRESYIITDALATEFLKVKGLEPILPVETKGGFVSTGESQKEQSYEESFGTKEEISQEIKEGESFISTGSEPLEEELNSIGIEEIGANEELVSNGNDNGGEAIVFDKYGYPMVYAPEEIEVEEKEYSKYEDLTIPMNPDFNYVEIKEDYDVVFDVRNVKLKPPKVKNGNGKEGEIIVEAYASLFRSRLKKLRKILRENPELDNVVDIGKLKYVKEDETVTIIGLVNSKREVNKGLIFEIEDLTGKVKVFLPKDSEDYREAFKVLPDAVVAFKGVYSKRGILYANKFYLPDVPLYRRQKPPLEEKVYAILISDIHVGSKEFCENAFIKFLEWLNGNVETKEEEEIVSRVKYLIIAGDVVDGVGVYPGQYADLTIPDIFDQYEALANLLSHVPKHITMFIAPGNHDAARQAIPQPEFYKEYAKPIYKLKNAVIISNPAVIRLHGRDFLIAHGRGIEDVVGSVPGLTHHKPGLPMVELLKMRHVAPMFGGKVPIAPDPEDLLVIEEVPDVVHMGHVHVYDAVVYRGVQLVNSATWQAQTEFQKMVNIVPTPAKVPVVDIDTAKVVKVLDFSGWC
Method: as §1

C[C@@]1(CO)[C@H](O)CC[C@@]2(C)[C@H]1CC[C@H]1C[C@@H]3C[C@@]12CC[C@]3(O)CO [aphidicolin]
activity of the Pfu DNA polymerase relative to the original activity [1]: 20%
inhibition of the DNA polymerase of the present invention [2]: not inhibited at all
